For 9 compounds, chromatographic logP, inhibition and pest or weed control results are on record in patent US12565489B2, “Heterocyclyl pyrimidines and triazines as novel fungicides” (Bayer Aktiengesellschaft, priority 2020, dated 2026).

The nature of data set [1]: Measurement of Log P values by HPLC on reversed phase columns (EEC directive 79/831 Annex V.A8). It counts as physicochemical. As to conditions: LogP. In short, it runs like this:
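Calibration used straight-chain alkan-2-ones (3 to 16 carbons) of known Log P, interpolating linearly between retention times. Values come from reversed-phase LC-UV (EEC 79/831 Annex V.A8), 10% to 95% acetonitrile gradient against 0.1% formic acid, 0.001 molar ammonium acetate, or 0.1% phosphoric acid.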

The subject of the next data set is Pyricularia oryzae. In words: microbe, parasite or virus in culture. It counts as cell-based. As to conditions: 120 h, read-out: efficacy (inhibition of fungal growth).
Data set [2] deals with Colletotrichum lindemuthianum. As to the kind of experiment: Colletotrichum lindemuthianum in vitro cell test. The format is cell-based. As to conditions: 144 h, 20 ppm of active ingredient, 6 days incubation, liquid culture, spectrometric measurement of mycelium growth, read-out: efficacy (inhibition of fungal growth). Put shortly:
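C. lindemuthianum spores were incubated with DMSO-solubilized compounds in liquid glucose-peptone-yeast extract medium, scoring inhibition of germination and mycelial growth. Mycelial growth was measured spectrometrically after 6 days. Inhibition was calculated from absorbance relative to compound-free control wells.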

In data set [3] the test system is Botrytis cinerea. As to the kind of experiment: Botrytis cinerea in vitro cell test. It counts as cell-based. As to conditions: 144 h, 20 ppm of active ingredient, 6 days incubation, liquid culture, spectrometric measurement of mycelium growth, read-out: efficacy (inhibition of fungal growth). In short, it runs like this:
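B. cinerea spore suspension grown in defined liquid mineral/sucrose medium with DMSO-dissolved compounds for 6 days. Mycelial growth was measured by absorbance, and inhibition was derived relative to fungicide-free control wells.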

The subject of the next data set is Alternaria brassicae. As to the kind of experiment: In vivo preventive test on Alternaria brassicae (leaf spot on radish or cabbage). Particulars: 144 h, 500 ppm of active ingredient, preventive spray on young radish or cabbage plants, evaluated 6 days after inoculation, read-out: efficacy.
Data set [4] relates to Botrytis cinerea. In words: In vivo preventive test on Botrytis cinerea (grey mould). As to conditions: 500 ppm of active ingredient, preventive spray on young gherkin or cabbage plants, evaluated 4 to 5 days after inoculation, read-out: efficacy. Put shortly:
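Gherkin or cabbage seedlings sprayed preventively with compound (DMSO/acetone/Tween 80 formulation diluted in water); controls got solvent only. Leaves inoculated 24 h later by spraying aqueous B. cinerea spore suspension.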

A further data set relates to Sphaerotheca fuliginea. As to the kind of experiment: In vivo preventive test on Sphaerotheca fuliginea (powdery mildew on cucurbits). As to conditions: Podosphaera fuliginea, 192 h; 500 ppm of active ingredient; preventive spray on young gherkin plants; evaluated 8 days after inoculation; read-out: efficacy. Put shortly:
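Young gherkin plants were sprayed preventively with compound dissolved in DMSO/acetone/Tween 80 and diluted in water; controls got solvent only. Leaves were inoculated 24 hours later with an aqueous Sphaerotheca fuliginea spore suspension.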

In data set [5] the test system is Colletotrichum lindemuthianum. As to the kind of experiment: In vivo preventive test on Colletotrichum lindemuthianum (leaf spot on bean). Particulars: 168 h, 500 ppm of active ingredient, preventive spray on young bean plants, evaluated 7 days after inoculation, read-out: efficacy. In short, it runs like this: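 Young bean plants sprayed with compound dissolved in DMSO/acetone/Tween 80 and diluted in water; vehicle-only plants served as controls. After 24 hours, leaves inoculated by spraying an aqueous suspension of Colletotrichum lindemuthianum spores.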

SMILES strings stand for the structures.

As a reminder, the chromatographic logP is lipophilicity estimated from chromatographic retention. Higher therefore signals higher lipophilicity. As a reminder, the inhibition is the relative decrease from the control value, in per cent. The compound `C=Cc1cccc(Oc2cnc(C)nc2C2=NOC[C@@H](Cc3ccc(C)cc3C)N2)c1` (racemic) [Compound I-019] came in with a chromatographic logP in data set [1] of 4.09. Moreover, the inhibition at 20 ppm (in the data set with Pyricularia oryzae; in data set [2]; in the data set on Botrytis cinerea [3]) was 90 to 100% each time. Besides, the pest or weed control at 500 ppm lay within 90 to 100% in the data set with Alternaria brassicae, 90 to 100% in the data set with Botrytis cinerea [4], 80 to 89% in the data set on Sphaerotheca fuliginea and 90 to 100% in data set [5].
In data set [1], `Cc1ncc(Oc2cccc(C(F)(F)F)c2)c(C2=NOCC(Cc3ccc(Br)cc3C)N2)n1` (racemic) [Compound I-021, (5RS)-5-[(4-bromo-2-methyl-phenyl)methyl]-3-[2-methyl-5-[3-(trifluoro-methyl)phenoxy]pyrimidin-4-yl]-5,6-dihydro-4H-1,2,4-oxadiazine] had a chromatographic logP of 4.48. The inhibition at 20 ppm (with Pyricularia oryzae; in data set [2]; in the data set with Botrytis cinerea [3]) was 90 to 100% throughout. The pest or weed control at 500 ppm (in the data set on Alternaria brassicae; in the data set on Botrytis cinerea [4]; in the data set on Sphaerotheca fuliginea; in data set [5]) was 90 to 100% in each case.
Consider `Cc1ccc(C[C@@H]2CON=C(c3nc(C)ncc3Oc3cccc(Cl)c3)N2)c(C)c1` (racemic) [Compound I-023], for which the chromatographic logP in data set [1] amounted to 4.15. For the same compound, the inhibition at 20 ppm (with Pyricularia oryzae; in data set [2]; in the data set with Botrytis cinerea [3]) was 90 to 100% in each case. Further, the pest or weed control at 500 ppm (in the data set on Alternaria brassicae; in the data set with Botrytis cinerea [4]; with Sphaerotheca fuliginea; in data set [5]) was 90 to 100% in each case.
For the compound `Cc1ccc(C[C@@H]2CON=C(c3nc(C)ncc3Oc3cccc(C4CC4)c3)N2)c(C)c1` (racemic) [Compound I-024], the chromatographic logP in data set [1] was 4.55. For the same compound, the inhibition at 20 ppm (in the data set on Pyricularia oryzae; in data set [2]; with Botrytis cinerea [3]) was 90 to 100% each time. Besides, the pest or weed control at 500 ppm (in the data set with Alternaria brassicae; with Botrytis cinerea [4]; in the data set with Sphaerotheca fuliginea; in data set [5]) was 90 to 100% in each case.
Regarding `C#Cc1cccc(Oc2cnc(C)nc2C2=NOC[C@@H](Cc3ccc(C)cc3C)N2)c1` (racemic) [Compound I-025], the chromatographic logP in data set [1] came out at 3.85. Besides, the inhibition at 20 ppm (with Pyricularia oryzae; in data set [2]; in the data set on Botrytis cinerea [3]) was 90 to 100% each time. Further, the pest or weed control at 500 ppm (in the data set on Alternaria brassicae; in the data set with Botrytis cinerea [4]; in the data set on Sphaerotheca fuliginea; in data set [5]) was 90 to 100% throughout.
Consider `C#Cc1ccc(CC2CON=C(c3nc(C)ncc3Oc3cccc(C(F)(F)F)c3)N2)c(C)c1` (racemic) [Compound I-026, (5RS)-5-[(4-ethynyl-2-methyl-phenyl)methyl]-3-[2-methyl-5-[3-(trifluoromethyl)phenoxy]pyrimidin-4-yl]-5,6-dihydro-4H-1,2,4-oxadiazine], for which the chromatographic logP in data set [1] came to 3.99. Besides, the inhibition at 20 ppm (in the data set with Pyricularia oryzae; in data set [2]; in the data set on Botrytis cinerea [3]) was 90 to 100% throughout. In addition, the pest or weed control at 500 ppm (in the data set with Alternaria brassicae; in the data set on Botrytis cinerea [4]; in the data set with Sphaerotheca fuliginea; in data set [5]) was 90 to 100% in each case.
Consider `Cc1ncc(Oc2cccc(C(F)(F)F)c2)c(C2=NOCC(Cc3ccc(C4CC4)cc3C)N2)n1` (racemic) [Compound I-029, (5RS)-5-[(4-cyclopropyl-2-methyl-phenyl)methyl]-3-[2-methyl-5-[3-(trifluoromethyl)phenoxy]pyrimidin-4-yl]-5,6-dihydro-4H-1,2,4-oxadiazine], for which the chromatographic logP in data set [1] is 4.7. Moreover, the inhibition at 20 ppm (with Pyricularia oryzae; in data set [2]; with Botrytis cinerea [3]) was 90 to 100% throughout. For the same compound, the pest or weed control at 500 ppm (in the data set on Alternaria brassicae; with Botrytis cinerea [4]; in the data set on Sphaerotheca fuliginea; in data set [5]) was 90 to 100% each time.
Compound `COc1cccc(Oc2cnc(C)nc2C2=NOC[C@@H](Cc3ccc(C)cc3C)N2)c1` (racemic) [Compound I-032] returned a chromatographic logP in data set [1] of 3.66. The results for the inhibition at 20 ppm (with Pyricularia oryzae; in data set [2]; in the data set with Botrytis cinerea [3]) were 80 to 89%, 90 to 100% and 90 to 100%, respectively. Further, the pest or weed control at 500 ppm (with Alternaria brassicae; with Botrytis cinerea [4]; with Sphaerotheca fuliginea; in data set [5]) was 90 to 100% in each case.
In turn, `Cc1ncc(Oc2cccc(C(F)(F)F)c2)c(C2=NOC[C@@H](Cc3ccc(C(F)F)cc3Cl)N2)n1` (racemic) [Compound I-033] came in with a chromatographic logP in data set [1] of 4.02. For the same compound, the values for the inhibition at 20 ppm (with Pyricularia oryzae; in data set [2]; with Botrytis cinerea [3]) were 70 to 79%, 90 to 100% and 90 to 100%, respectively. Also, the pest or weed control at 500 ppm lay within 90 to 100% in the data set with Alternaria brassicae, 90 to 100% in the data set with Botrytis cinerea [4], 90 to 100% with Sphaerotheca fuliginea and 80 to 89% in data set [5].
